Reference: US12403326B2, “System for corneal cross-linking and correcting vision by using LED contact lens and eye dye” (PHI BIOMED INC., priority 2019, dated 2025)

Legend:
bovine cornea [1] = assay: Corneal strength, Young's modulus using Instron equipment; details: bovine cornea after collagen crosslinking; untreated Control 1.76
Experimental: (§1) Hyaluronic acid or a hyaluronic acid-Rose Bengal conjugate were dropped on the bovine cornea at 5-minute intervals for 30 minutes, and a 532-nm laser was irradiated for 30 minutes to induce crosslinking between corneal collagen. Afterward, corneal tissue was fixed with formalin, and stained with H&E, followed by observation under a microscope.
In addition, the bovine cornea in which collagen crosslinking was induced was extracted, and then the Young's modulus of the cornea was measured using Instron equipment to analyze the strength of the cornea.

bovine cornea [2] = assay: Corneal bonding of wounded cornea, intraocular pressure by tonometer after 532-nm laser; details: wounded bovine eye; dropped at 5-minute intervals for 30 minutes, 532-nm laser for 30 minutes
Experimental: After approximately […] wound was made in the bovine cornea, the pressure in the bovine eye was measured using a tonometer. Afterward, each of a hyaluronic acid-Rose Bengal conjugate solution and a Rose Bengal solution was dropped on the wound-induced region at 5-minute intervals for 30 minutes, and a 532-nm laser was irradiated for 30 minutes to induce crosslinking between corneal collagen to bond. Likewise, an intraocular pressure was measured after bonding by a laser using a tonometer.
By comparing the intraocular pressure before and after bonding, it was confirmed whether bonding was formed.

bovine cornea [3] = assay: Corneal thickness from H&E stained corneal tissue after collagen crosslinking; details: decreased from 1000 μm; dropped for 30 minutes, 532-nm laser for 30 minutes; H&E images
Experimental: as §1

bovine cornea [4] = assay: Corneal permeability by two-photon image analysis; format: in vitro ADME; details: dropped on bovine cornea at 5-minute intervals for 30 minutes; two-photon imaging
Experimental: The hyaluronic acid-Rose Bengal conjugate synthesized in Example 1 was dropped on the bovine cornea at 5-minute intervals for 30 minutes. As a comparative group, a pure Rose Bengal solution was dropped in the same manner as described above.
Afterward, two-photon image analysis was performed by extracting the cornea from the bovine cornea.

SMILES: O=C([O-])c1c(Cl)c(Cl)c(Cl)c(Cl)c1-c1c2cc(I)c(=O)c(I)c-2oc2c(I)c([O-])c(I)cc12.[Na+].[Na+] [Rose Bengal]
- Young's modulus of the cornea (bovine cornea [1]): 2.75
- increase in maximum intraocular pressure compared to not treated (bovine cornea [2]): approximately two
- corneal thickness after treatment (bovine cornea [3]): 750 μm
- depth up to which fluorescence was shown in the cornea (corneal permeability) (bovine cornea [4]): 400 μm
